From US7999107B2, “Substituted pyrano[2,3-B]pyridine derivatives as cannabinoid-1 receptor modulators” (Merck Sharp & Dohme Corp., priority 2007, dated 2011)
Like-named read-outs stand apart in the source and are kept apart here.

Legend:
[1] = molecular target: T1, recombinant human CB1 receptor (Homo sapiens, UniProt P21554); test: Cannabinoid Receptor-1 (CB1) Binding Assay
T1 construct: expressed in transfected cells; host or cells: CHO cells (membranes)
Protocol: Binding affinity determination is based on recombinant human CB1 receptor expressed in Chinese Hamster Ovary (CHO) cells (Felder et al, Mol. Pharmacol. 48: 443-450, 1995). Total assay volume is 250 μl (240 μl CB1 receptor membrane solution plus 5 μl test compound solution plus 5 μl [3H]CP-55940 solution). Final concentration of [3H]CP-55940 is 0.6 nM. Binding buffer contains 50 mM Tris-HCl, pH7.4, 2.5 mM EDTA, 5 mM MgCl2, 0.5 mg/mL fatty acid free bovine serum albumin and protease inhibitors (Cat#P8340, from Sigma). To initiate the binding reaction, 5 μl of radioligand solution is added, the mixture is incubated with gentle shaking on a shaker for 1.5 h at 30° C. The binding is terminated by using 96-well harvester and filtering through GF/C filter presoaked in 0.05% polyethylenimine. The bound radiolabel is quantitated using scintillation counter. Apparent binding affinities for various compounds are calculated from IC50 values (DeBlasi et al., Trends Pharmacol Sci 10: 227-229, 1989).

[2] = molecular target: T2, recombinant human CB1 receptor expressed in CHO cells (Homo sapiens, UniProt P21554); test: Cannabinoid Receptor-1 (CB1) Functional Antagonist Assay; assay type: cell-based; conditions: cAMP
Protocol: To determine the antagonist activity of test compound, the reaction mixture also contains 0.5 nM of the agonist CP55940 (or 50 nM of methanandamide), and the reversal of the CP55940 (or methanandamide) effect is quantitated with increasing concentration of the test compound. Intracellular cAMP is determined as described above. An IC50 value for the test compound is calculated from the titration curve.
Alternatively, a series of dose response curves for the agonist CP55940 (or methanandamide) is performed with increasing concentration of the test compound in each of the dose response curves, and a Schild analysis is carried to calculate the Kb value which is an estimation of test compound binding affinity.

[3] = molecular target: T2, recombinant human CB1 receptor expressed in CHO cells; test: Cannabinoid Receptor-1 (CB1) Functional Activity Assay (cAMP); assay type: cell-based; conditions: forskolin-stimulated cAMP
Protocol: The functional activation of CB1 receptor is based on recombinant human CB1 receptor expressed in CHO cells (Felder et al, Mol. Pharmacol. 48: 443-450, 1995). To determine the agonist activity or inverse agonist activity of any test compound, 50 ul of CB1-CHO cell suspension are mixed with test compound and 70 ul assay buffer containing 0.34 mM 3-isobutyl-1-methylxanthine and 5.1 uM of forskolin in 96-well plates. The assay buffer is comprised of Earle's Balanced Salt Solution supplemented with 5 mM MgCl2, 1 mM glutamine, 10 mM HEPES, and 1 mg/mL bovine serum albumin. The mixture is incubated at room temperature for 30 minutes, and terminated by adding 30 ul/well of 0.5M HCl. The total intracellular cAMP level is quantitated using the New England Nuclear Flashplate and cAMP radioimmunoassay kit.

[4] = [3H]CP-55940 0.6 nM, CHO cell membranes, read-out: CB1 binding IC50

T1 sequence (P21554 whole entry): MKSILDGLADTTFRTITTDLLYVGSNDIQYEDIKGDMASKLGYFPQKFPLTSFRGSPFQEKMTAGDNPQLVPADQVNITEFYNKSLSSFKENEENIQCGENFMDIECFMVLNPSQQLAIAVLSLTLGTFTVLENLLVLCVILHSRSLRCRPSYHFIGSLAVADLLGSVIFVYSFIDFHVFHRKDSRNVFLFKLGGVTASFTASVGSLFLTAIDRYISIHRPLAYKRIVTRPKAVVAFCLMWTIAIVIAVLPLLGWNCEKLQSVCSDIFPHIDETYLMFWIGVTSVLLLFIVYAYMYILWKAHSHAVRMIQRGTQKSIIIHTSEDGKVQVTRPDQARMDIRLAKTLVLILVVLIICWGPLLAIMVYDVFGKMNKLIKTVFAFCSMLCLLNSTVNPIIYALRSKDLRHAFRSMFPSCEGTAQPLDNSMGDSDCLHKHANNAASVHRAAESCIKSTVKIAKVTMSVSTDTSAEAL
T2 sequence (P21554 whole entry): as above

| SMILES | IC50 [1] [nM] | functional character at CB1 [2] | EC50 [3] [nM] | IC50 [1, 4] [nM] |
| --- | --- | --- | --- | --- |
| O=C1CC2(CCCCC2)Oc2nc(-c3ccccc3Cl)c(-c3ccc(Cl)cc3)cc21 [Example 4, 7′-(2-Chlorophenyl)-6′-(4-chlorophenyl)spiro[cyclohexane-1,2′-pyrano[2,3-b]pyridin]-4′(3′H)-one] | 8 | functional inverse agonists | < 20 |  |
| CC(C)(C)C1CC(=O)c2cc(-c3ccc(Cl)cc3)c(-c3ccccc3Cl)nc2O1 (centres unmarked) [Example 12, 2-tert-Butyl-7-(2-chlorophenyl)-6-(4-chlorophenyl)-2,3-dihydro-4H-pyrano[2,3-b]pyridin-4-one] |  | functional inverse agonists | < 20 | 2 |
| CNC(=O)C(=O)NC1CC(C)(C)Oc2nc(-c3ccc(Cl)cc3Cl)c(-c3ccc(Cl)cc3)cc21 (centres unmarked) [Example 66, N-[6-(4-Chlorophenyl)-7-(2,4-dichlorophenyl)-2,2-dimethyl-3,4-dihydro-2H-pyrano[2,3-b]pyridin-4-yl]-N′-methylethanediamide] |  | functional inverse agonists | < 20 | 2 |
| C[C@@H](O)C(=O)NC1CC(C)(C)Oc2nc(-c3ccc(Cl)cc3Cl)c(-c3ccc(Cl)cc3)cc21 (stereo partly drawn) [Example 96, (2R)-N-[6-(4-chlorophenyl)-7-(2,4-dichlorophenyl)-2,2-dimethyl-3,4-dihydro-2H-pyrano[2,3-b]pyridin-4-yl]-2-hydroxypropanamide] |  | functional inverse agonists |  |  |
| CN(C)C(=O)NC1CC(C)(C)Oc2nc(-c3ccc(Cl)cc3Cl)c(-c3ccc(Cl)cc3)cc21 (centres unmarked) [Example 111, N′-[6-(4-chlorophenyl)-7-(2,4-dichlorophenyl)-2,2-dimethyl-3,4-dihydro-2H-pyrano[2,3-b]pyridin-4-yl]-N,N-dimethylurea] |  | functional inverse agonists | < 20 | 2 |
| CC1(C)CC(Nc2ccccn2)c2cc(-c3ccc(Cl)cc3)c(-c3ccc(Cl)cc3Cl)nc2O1 (centres unmarked) [Example 245, 6-(4-Chlorophenyl)-7-(2,4-dichlorophenyl)-2,2-dimethyl-N-(pyridine-2-yl)-3,4-dihydro-2H-pyrano[2,3-b]pyridin-4-amine] |  | functional inverse agonists | < 20 | 2 |
| Cc1cc(NC2CC(C)(C)Oc3nc(-c4ccc(Cl)cc4Cl)c(-c4ccc(Cl)cc4)cc32)n[nH]1 (centres unmarked) [Example 246, 6-(4-Chlorophenyl)-7-(2,4-dichlorophenyl)-2,2-dimethyl-N-(5-methyl-1H-pyrazol-3-yl)-3,4-dihydro-2H-pyrano[2,3-b]pyridin-4-amine] |  | functional inverse agonists | < 20 | 10 |
| Cc1cc(C(=O)N[C@@H]2CC(C)(C)Oc3nc(-c4ccc(Cl)cc4Cl)c(-c4ccc(Cl)cc4)cc32)n[nH]1 [Example 327, N-[(4R)-6-(4-Chlorophenyl)-7-(2,4-dichlorophenyl)-2,2-dimethyl-3,4-dihydro-2H-pyrano[2,3-b]pyridin-4-yl]-5-methyl-1H-pyrazole-3-carboxamide] |  | functional inverse agonists |  |  |
